Laboratory results as given in PMC12018048, “Intranasal kisspeptin administration rapidly stimulates gonadotropin release in humans” (eBioMedicine, 2025).
Where “and” joins values, the source holds several entries; their conditions need not be identical. Equal entries are not always repeated.

Legend:
[1] = Stability of kisspeptin-54 solutions for nasal delivery; format: physicochemical; conditions: 2 M HCL or phosphate buffer at 60 °C for 72 h, HPLC-UV
[2] = system: serum LH, FSH and testosterone; experiment: Intranasal kisspeptin-54, reproductive hormone profiles in healthy men; format: in vivo, human; conditions: N = 12; for AUC of the change in serum LH / AUC of the change in serum testosterone / AUC of the change in serum FSH: 4 h sampling; for AUC of the change in serum LH / AUC of the change in serum testosterone / Max increase from baseline in serum testosterone / Maximum increase from baseline in serum FSH / Maximum increase from baseline in serum LH / AUC of the change in serum FSH: mean ± SEM; for Serum FSH over the sampling period, mean difference vs placebo / Serum LH over the sampling period, mean difference vs placebo: 4 h time profile
Description: This was a randomised, double-blinded, crossover, placebo-controlled clinical study (Fig. 1, Fig. 2, Fig. 3a). Participants were admitted to the Clinical Research Unit (Imperial College Healthcare NHS Trust) and completed five (in healthy men) or two (in healthy women and patients with HA) study visits. […] Study visits in healthy women were conducted in the follicular phase of the menstrual cycle (i.e., days 2–10 inclusive) to control for changes in reproductive hormones over the course of the cycle and were conducted across two different menstrual cycles to allow washout.
All studies commenced at 08:00 to control for circadian hormonal changes. Participants were instructed to abstain from alcohol, caffeine, and sexual activities from 22:00 preceding each study visit. On arrival, an intravenous cannula was inserted into one antecubital fossa, and blood was sampled at timepoints −30, −15, and 0 min, before intranasal administration of kisspeptin-54 or 0.9% saline (placebo). Following participant education (described below), healthy men self-administered the following 5 interventions under supervision in random order via the intranasal route: 3.2, 6.4, 12.8, and 25.6 nmol/kg of kisspeptin-54, or placebo. Healthy women and patients with HA attended for the same protocol comparing 12.8 nmol/kg of kisspeptin-54 and placebo in random order. After administration of kisspeptin-54 or placebo at timepoint 0 min, serum levels of LH, FSH, and testosterone (in men), or oestradiol and progesterone (in women) were measured every 15 min for 4 h. Heart rate, blood pressure, and the presence of adverse symptoms were recorded every 15 min.
Kisspeptin-54 or placebo was self-administered using nasal spray devices that delivered a single volume of 100 μL per actuation (SP270+ pump, 3959 actuator, 5 mL SGD U-Save glass bottles provided by Nemera, La Verpillière, France). The kisspeptin-54 nasal spray solution formulations were prepared by reconstituting kisspeptin-54 powder stored in sterile vials on the morning of each study visit to produce a solution containing the target dose according to body weight in 400 μL.
Participants were familiarised with the procedure of intranasal application and were provided with written administration instructions ahead of each study visit, as described in.[38] In addition, participants received a 5-min training session using a dummy nasal spray device before starting the study to ensure good technique, which all participants easily understood. Under instruction and supervision from the clinical team, participants primed the nasal sprays then self-administered a total of four sprays of kisspeptin-54 or placebo per visit (i.e., 4 × 100 μL), alternating between nostrils and leaving 60 s between sprays, to allow satisfactory dissipation and avoid solution running out of the nostrils. Nasal sprays containing kisspeptin or placebo were identical in appearance, volume, and administration technique.
Blood samples were collected to measure serum reproductive hormone levels at the timepoints depicted in Fig. 1, Fig. 2, Fig. 3a. Serum samples were stored at −20 °C until analysis. Serum LH, FSH, testosterone (in men), and oestradiol and progesterone (in women) were measured using automated chemiluminescent immunoassays (Abbott Diagnostics, Maidenhead, UK: LH catalogue # 2P40-25, FSH catalogue # 7K75-25, testosterone catalogue # 07K7320, oestradiol catalogue # 7K72-25, progesterone catalogue # 7K77-25). Reference ranges: LH in international units per litre (IU/L), 2–12 (men), 2–10 (follicular), 20–60 (mid-cycle), 4–14 (luteal); FSH in IU/L, 1.7–8 (men), 1.5–8.0 (follicular and luteal), 10–50 (mid-cycle); in men: testosterone in nanomoles per litre (nmol/L), 10–30; and in women: oestradiol in picomoles per litre (pmol/L), <300 (early follicular), 400–1500 (mid-cycle), 200–1000 (luteal) and progesterone in nmol/L, <5.0 (follicular), 3.5–67 (luteal). […]

[3] = intranasal 3.2 nmol/kg vs placebo
[4] = intranasal 6.4 nmol/kg vs placebo
[5] = intranasal 6.4 nmol/kg, two-way ANOVA
[6] = intranasal 12.8 nmol/kg vs placebo
[7] = intranasal 12.8 nmol/kg, two-way ANOVA
[8] = intranasal 25.6 nmol/kg vs placebo

Substance: Kisspeptin-54
- Forced degradation (HPLC assay specificity) [1]: loss or reduction of the kisspeptin peak
- FSH AUC, mean difference vs placebo [2, 3]: 47.2 h·IU/L
- FSH maximum increase, mean difference vs placebo [2, 3]: 0.2 IU/L
- LH AUC, mean difference vs placebo [2, 3]: 197.6 h·IU/L
- LH maximum increase, mean difference vs placebo [2, 3]: 1.1 IU/L
- Testosterone AUC, mean difference vs placebo [2, 3]: 457.4 nmol·h/L
- Testosterone max increase, mean difference vs placebo [2, 3]: 1.5 nmol/L
- AUC of the change in serum LH ([2]; intranasal 3.2 nmol/kg): 172.2 ± 64.2 h·IU/L
- AUC of the change in serum testosterone ([2]; intranasal 3.2 nmol/kg): 273.6 ± 158.7 nmol·h/L
- Max increase from baseline in serum testosterone ([2]; intranasal 3.2 nmol/kg): 4.0 ± 1.0 nmol/L
- Maximum increase from baseline in serum FSH ([2]; intranasal 3.2 nmol/kg): 0.3 ± 0.1 IU/L
- Maximum increase from baseline in serum LH ([2]; intranasal 3.2 nmol/kg): 2.5 ± 0.3 IU/L
- FSH AUC, mean difference vs placebo [2, 4]: 97.6 h·IU/L
- FSH maximum increase, mean difference vs placebo [2, 4]: 0.4 IU/L
- LH AUC, mean difference vs placebo [2, 4]: 325.5 h·IU/L
- LH maximum increase, mean difference vs placebo [2, 4]: 1.7 IU/L
- Testosterone AUC, mean difference vs placebo [2, 4]: 329.7 nmol·h/L
- Testosterone max increase, mean difference vs placebo [2, 4]: 0.9 nmol/L
- AUC of the change in serum FSH ([2]; intranasal 6.4 nmol/kg): 37.3 ± 16.2 h·IU/L
- AUC of the change in serum LH ([2]; intranasal 6.4 nmol/kg): 300.2 ± 79.2 h·IU/L
- AUC of the change in serum testosterone ([2]; intranasal 6.4 nmol/kg): 145.9 ± 158.5 nmol·h/L
- Max increase from baseline in serum testosterone ([2]; intranasal 6.4 nmol/kg): 3.4 ± 0.8 nmol/L
- Maximum increase from baseline in serum FSH ([2]; intranasal 6.4 nmol/kg): 0.4 ± 0.1 IU/L
- Serum FSH over the sampling period, mean difference vs placebo [2, 5]: 0.4 IU/L
- Serum LH over the sampling period, mean difference vs placebo [2, 5]: 1.3 IU/L
- FSH AUC, mean difference vs placebo [2, 6]: 156.6 h·IU/L
- FSH maximum increase, mean difference vs placebo [2, 6]: 0.7 IU/L
- LH AUC, mean difference vs placebo [2, 6]: 621.1 h·IU/L
- LH maximum increase, mean difference vs placebo [2, 6]: 3.1 IU/L
- Testosterone AUC, mean difference vs placebo [2, 6]: 654.3 nmol·h/L
- Testosterone max increase, mean difference vs placebo [2, 6]: 2.4 nmol/L
- AUC of the change in serum FSH ([2]; intranasal 12.8 nmol/kg): 96.3 ± 23.2 h·IU/L
- AUC of the change in serum LH ([2]; intranasal 12.8 nmol/kg): 595.7 ± 98.3 h·IU/L
- AUC of the change in serum testosterone ([2]; intranasal 12.8 nmol/kg): 470.4 ± 144.0 nmol·h/L
- Time of maximal increase in serum testosterone ([2]; intranasal 12.8 nmol/kg): 150 min
- Max increase from baseline in serum testosterone ([2]; intranasal 12.8 nmol/kg): 4.9 ± 0.7 nmol/L
- Maximum increase from baseline in serum FSH ([2]; intranasal 12.8 nmol/kg): 0.7 ± 0.2 IU/L
- Maximum increase from baseline in serum LH ([2]; intranasal 12.8 nmol/kg): 4.45 IU/L and 4.4 ± 0.6 IU/L
- Serum FSH over the sampling period, mean difference vs placebo [2, 7]: 0.6 IU/L
- Serum LH over the sampling period, mean difference vs placebo [2, 7]: 2.5 IU/L
- Serum testosterone, mean difference vs placebo at peak levels from 120 min [2, 7]: 1.91 nmol/L
- FSH AUC, mean difference vs placebo [2, 8]: 147.6 h·IU/L
- FSH maximum increase, mean difference vs placebo [2, 8]: 0.7 IU/L
- LH AUC, mean difference vs placebo [2, 8]: 574.4 h·IU/L
- LH maximum increase, mean difference vs placebo [2, 8]: 2.9 IU/L
- Testosterone AUC, mean difference vs placebo [2, 8]: 630.3 nmol·h/L
- Testosterone max increase, mean difference vs placebo [2, 8]: 3.1 nmol/L
- AUC of the change in serum FSH ([2]; intranasal 25.6 nmol/kg): 87.3 ± 66.2 h·IU/L
- AUC of the change in serum LH ([2]; intranasal 25.6 nmol/kg): 549.0 ± 108.6 h·IU/L
- AUC of the change in serum testosterone ([2]; intranasal 25.6 nmol/kg): 446.5 ± 287.4 nmol·h/L
- Max increase from baseline in serum testosterone ([2]; intranasal 25.6 nmol/kg): 5.6 ± 1.6 nmol/L
- Maximum increase from baseline in serum FSH ([2]; intranasal 25.6 nmol/kg): 0.8 ± 0.3 IU/L
- Maximum increase from baseline in serum LH ([2]; intranasal 25.6 nmol/kg): 4.3 ± 0.6 IU/L
- Serum LH over the sampling period, mean difference vs placebo ([2]; intranasal 25.6 nmol/kg, two-way ANOVA): 2.3 IU/L
- Time of peak stimulation of serum LH after administration ([2]; intranasal 3.2-25.6 nmol/kg): 30 to 45 min
